According to patent publication US8986687B2, “Compounds inhibiting CD95 signaling for the treatment of pancreatic cancer” (Deutsches Krebsforschungszentrum, priority 2009, dated 2015):

System: ERK pathway / phosphorylation of ERK
Assay: Western blotting of ERK phosphorylation in pancreatic cells
Assay type: cell-based
Details: PANC1 and Colo357 cells
Description: Phosphorylation of AKT and ERK is shown in PanD3, PANC1 and Colo357 cells upon treatment with different concentrations of CD95L-T4 at the indicated time points. P: phosphorylated; T: total.
A) Effect of the PI3K and MEK inhibitors (LY2940092 and PD98059 respectively) on CD95-induced phosphorylation of AKT and ERK is shown in PANC1 and Colo357. Inhibition of PI3K enhances ERK phosphorylation. P: phosphorylated; T: total.
It has been known that low concentrations of CD95L are sufficient to efficiently stimulate the non-apoptotic pathways downstream of CD95, being those pathways inhibited by higher concentrations. […]
Knockdown experiments were performed by transient transfection with Lipofectamine 2000™ (Invitrogen Life Technologies) following the instruction manual. […] After transient transfection with the different siRNAs cells were cultured for 72 h before treated with CD95LT4 (20 ng/ml), migration was analyzed 36 h after treatment with a two dimensional migration assay. Knockdown efficiency was controlled by quantitative real-time PCR.
Proteins were transferred from polyacrylamide gels to nitrocellulose membranes by electroblotting. […] The HRP signal was detected by incubation with ECL solution and consecutive exposure to Amersham Hyperfim X-ray films Protein extraction and immunoblotting was performed as previously described. […]

O=c1cc(N2CCOCC2)oc2c(-c3ccccc3)cccc12 [LY2940092]
effect of PI3K inhibition on CD95-induced ERK phosphorylation: enhances
